The IC50 is the concentration at which inhibition is half-maximal. The low end stands for greater potency in that assay, the high end for weaker potency in that assay.

The structures appear in SMILES notation.

For this assay, the system named is T1, acid-sensing ion channels (native ASICs of mouse DRG neurons; subunit not identified).
T1 construct: native channels in primary cultured mouse DRG neurons
As to the kind of experiment: whole-cell patch clamp, ASIC currents evoked by pH drop […] to […] at -60 mV. The class given is cell-based. A general note: The patch-clamp technique gives a direct electrical read-out from membranes.

Turning to `N=C(N)c1ccc(/N=N/Nc2ccc(C(=N)N)cc2)cc1` [diminazene], the IC50 was found to be 16.9 ± 4.4 µM.

The values are drawn from article PMC10368877, “Acid-sensing ion channel blocker diminazene facilitates proton-induced excitation of afferent nerves in a similar manner that Na^+/H^+ exchanger blockers do” (Frontiers in Cellular Neuroscience, 2023).
